Measurements reported in US20230053328A9, “COMBINATION THERAPIES USING CDK INHIBITORS” (Pfizer Inc., priority 2019, published 2023).

Test system: MC38 syngeneic mouse tumor model
Assay: MC38 syngeneic mouse tumor model, tumor growth inhibition and survival (Example 1)
Format: in vivo
Procedure: MC38 cells were obtained from American Type Culture Collection (ATCC) and cultured in Roswell Park Memorial Institute (RPMI1640) supplemented with 10% fetal bovine serum (FBS). All cells were maintained in a humidified incubator at 37° C. with 5% carbon dioxide (CO2). Female C57/BL6 mice were obtained from Jackson Laboratories at 8 weeks of age. To generate the syngeneic model, 0.5 million MC38 tumor cells were subcutaneously implanted into the right flank of female C57/BL6 mice. Tumor bearing mice were randomized into six treatment groups based on average tumor sizes of approximately 70 mm^3 per group, on Day 9 post tumor cell implantation. […]
Tumor volumes were measured three times a week. Tumor volume was calculated based on two-dimensional caliper measurement with cubic millimeter volume calculated using the formula (length×width2)×0.5. […] Statistical significance determined using the Holm-Sidak method, with alpha=0.05.

C[C@@]1(O)CCC[C@H]1n1c(=O)c(C(F)F)cc2cnc(NC3CCN(S(C)(=O)=O)CC3)nc21 [PF-06873600, 6-(difluoromethyl)-8-((1R,2R)-2-hydroxy-2-methylcyclopentyl)-2-(1-(methylsulfonyl)piperidin-4-ylamino)pyrido[2,3-d]pyrimidin-7(8H)-one]
synergy with OX40/4-1BB immune checkpoint modulators (in words) (MC38 syngeneic mouse tumor model, example heading): Synergizes | tumor growth inhibition (in words) (MC38 tumors in C57/BL6 mice, Day 27 post-treatment initiation): did not significantly inhibit tumor growth
